Test results taken from patent US8476064B2, “Inhibition assay method and device for detection of antibiotics” (Charm Sciences, Inc., priority 2006, dated 2013).

Tests used:
B.st. spores [1] = test: Antibiotic detection test in spiked milk, borate/succinate culture of Example 6 (Table 4); assay type: cell-based, Bacillus (Geobacillus) Stearothermophilus; design: key to Color 1 / Color 2: Color result 1 and 2 is a negative result; Color result 1 and 2 is a negative result; 3 is a borderline result; 4 and 5 is a positive result; 4 and 5 is a positive result; conditions: for % Pos (Color 2) / Color 2: after 16 hours at room temperature; for % Pos (Color 1) / Color 1: immediately after test completion
Method: BCP/Borate/Succinate Solution was prepared by adding 3.8 grams of Borate and 6 grams Succinate to 100 mL of reverse osmosis/deionized water (RO/DI Water) in 125 mL flask. 50 milligrams of BCP was added to a 50 mL conical tube and 5 mL of Borate/Succinate solution was added to the 50 milligrams BCP and mixed.
To prepare media 5 grams glucose and 1 gram Mueller Hinton Broth was dissolved in 100 mL RO/DI Water. 1.2 mL of a 0.01 mg/mL solution of trimethoprim in RO/DI Water was prepared and added to the media. A 20 mL of BCP/Borate/Succinate was added to the media and the media was sterile filtered through a 0.45 micron filter and then cooled to 4 degrees C.
Agar was prepared by combining 0.3 grams Difco Bacto-Agar (Item #0140-01), 0.225 NaCl and 17.485 RO/DI Water. The mixture was heated to 95° C. and then removed from the heat and allowed to cool to 75° C. Next 6 mL of media (prepared as described above with BCP/Tris) was added to the agar and mixed for 5 minutes. The mixture was cooled to 57° C. and 1 mL spore solution (concentration of 1 billion cfu/mL) was added and mixed together for 5 minutes. 0.200 mL was dispensed into the bottom of each of the vials.
In test operation 200 microliters of various milk sample, spiked with known concentrations of antibiotics, were pipetted into test vials and incubated for the prescribed time (in this test 2 hours 10 minutes) and prescribed temperature (64 degrees C.+/−2 degrees C.). Incubation was in the Charm I Inctronic incubator. Results were recorded immediately after test completion (Color 1) and after being left at room temperature for 16 hours (Color 2). Results listed are in parts per billion (ppb). 4 samples were run at each concentrations except for raw negative milk (16 samples) and 3 ppb pen G (2 samples) and amoxicillin (2 samples). Abbreviations are penicillin G (PenG); sulfamethazine (SMZ); sulfadimethoxine (SDM); tylosin (TY); gentamicin (G); oxytetracycline (OT); pirlimycin (Pirl); amoxicillin (Amox); ampicillin (Amp); cloxacillin (Clox); ceftiofur sodium (Ceft); cephaprin (Ceph); tilmicosin (Til); sulfadoxine (SDN); neomycin (Neo). Color result 1 and 2 is a negative result, 3 is a borderline result and 4 and 5 is a positive result.

B.st. spores [2] = test: Antibiotic detection test in spiked milk, Trizma/succinate culture of Example 7 (Table 5); assay type: cell-based, Bacillus (Geobacillus) Stearothermophilus; conditions: for % Pos (16 hr Result) / 16 hr Result: 16 hours later; for % Pos (Result) / Result: immediately after test completion
Method: A Trizma/Succinate solution was prepared by adding 2.5 grams Trizma Base and 6 grams Succinate to 100 mL of reverse osmosis/deionized water (RO/DI Water) in a 125 mL flask. 40 milligrams of BCP (see example 1 for BCP preparation) was then added to a 50 mL conical tube and 25 mL of the Trizma/Succinate solution was added to the 40 milligrams BCP and mixed.
The media was prepared by dissolving 5 grams glucose and 1 gram Mueller Hinton Broth in 100 mL RO/DI Water. 1.2 mL of a 0.01 mg/mL solution of trimethoprim in RO/DI water was added to the media. 20 mL of the BCP/Trizma/Succinate preparation was added to the media and the media was sterile filtered through a 0.45 micron filter and cooled to 4 degrees C.
0.3 grams Difco Bacto-Agar (Item #0140-01), 0.225 NaCl and 17 mL of RO/DI water was combined and mixed and heated the mixture to 95° C. The mixture was removed from the heat and allowed it to cool to 75° C. and then 6 mL media (with BCP/Tris) was added and mixed for 5 minutes. The mixture was cooled to 57° C. and 2 mL spore (concentration of 1 billion cfu/mL) was added and mixed for 5 minutes. 0.200 mL was dispensed into the bottom of each vial.
In test operation 200 microliters of various milk samples, spiked with known concentrations of antibiotics, were pipetted into vials and incubated for the prescribed time (in this test 2 hours 30 minutes) and prescribed temperature (64 degrees C.+/−2 degrees C.). Results were recorded immediately after test completion and 16 hours later. Incubation was in various Charm Inctronic I incubators. Concentrations listed are in parts per billion (ppb). 4 samples were run at each concentration except 16 negative samples were run and 2 samples each for 3 ppb pen G and amoxicillin. Abbreviations are pencillin G (PenG); sulfamethazine (SMZ); sulfadimethoxine (SDM); tylosin (TY); gentamicin (G); oxytetracycline (OT); pirlimycin (Pirl); amoxicillin (Amox); ampicillin (Amp); cloxacillin (Clox); ceftiofur sodium (Ceft); cephaprin (Ceph); tilmicosin (Til); sulfadoxine (SDN); neomycin (Neo).

CN(C)[C@@H]1C(O)=C(C(N)=O)C(=O)[C@@]2(O)C(O)=C3C(=O)c4c(O)cccc4[C@@](C)(O)[C@H]3[C@H](O)[C@@H]12 [OT, oxytetracycline]
% Pos (Color 2) (B.st. spores [1]; milk spiked at 200 ppb): 0%
Color 2 (B.st. spores [1]; milk spiked at 200 ppb): 2
% Pos (Color 1) (B.st. spores [1]; milk spiked at 200 ppb): 0%
Color 1 (B.st. spores [1]; milk spiked at 200 ppb): 2
% Pos (Color 2) (B.st. spores [1]; milk spiked at 300 ppb): 100%
Color 2 (B.st. spores [1]; milk spiked at 300 ppb): 4
% Pos (Color 1) (B.st. spores [1]; milk spiked at 300 ppb): 100%
Color 1 (B.st. spores [1]; milk spiked at 300 ppb): 5
% Pos (16 hr Result) (B.st. spores [2]; milk spiked at 200 ppb): 0%
% Pos (Result) (B.st. spores [2]; milk spiked at 200 ppb): 0%
% Pos (16 hr Result) (B.st. spores [2]; milk spiked at 300 ppb): 100%
% Pos (Result) (B.st. spores [2]; milk spiked at 300 ppb): 100%

CC1(C)S[C@@H]2[C@H](NC(=O)Cc3ccccc3)C(=O)N2[C@H]1C(=O)O [PenG, penicillin G]
% Pos (Color 2) (B.st. spores [1]; milk spiked at 3 ppb): 100%
Color 2 (B.st. spores [1]; milk spiked at 3 ppb): 5
% Pos (Color 1) (B.st. spores [1]; milk spiked at 3 ppb): 100%
Color 1 (B.st. spores [1]; milk spiked at 3 ppb): 5
% Pos (Color 2) (B.st. spores [1]; milk spiked at 4 ppb): 100%
Color 2 (B.st. spores [1]; milk spiked at 4 ppb): 5
% Pos (Color 1) (B.st. spores [1]; milk spiked at 4 ppb): 100%
Color 1 (B.st. spores [1]; milk spiked at 4 ppb): 5
16 hr Result (B.st. spores [2]; milk spiked at 3 ppb): Pos
% Pos (16 hr Result) (B.st. spores [2]; milk spiked at 3 ppb): 100%
% Pos (Result) (B.st. spores [2]; milk spiked at 3 ppb): 100%
Result (B.st. spores [2]; milk spiked at 3 ppb): Pos
16 hr Result (B.st. spores [2]; milk spiked at 4 ppb): Pos
% Pos (16 hr Result) (B.st. spores [2]; milk spiked at 4 ppb): 100%
% Pos (Result) (B.st. spores [2]; milk spiked at 4 ppb): 100%
Result (B.st. spores [2]; milk spiked at 4 ppb): Pos

COc1cc(NS(=O)(=O)c2ccc(N)cc2)nc(OC)n1 [SDM, sulfadimethoxine]
% Pos (Color 2) (B.st. spores [1]; milk spiked at 25 ppb): 100%
Color 2 (B.st. spores [1]; milk spiked at 25 ppb): 5
% Pos (Color 1) (B.st. spores [1]; milk spiked at 25 ppb): 100%
Color 1 (B.st. spores [1]; milk spiked at 25 ppb): 4
% Pos (Color 2) (B.st. spores [1]; milk spiked at 50 ppb): 100%
Color 2 (B.st. spores [1]; milk spiked at 50 ppb): 5
% Pos (Color 1) (B.st. spores [1]; milk spiked at 50 ppb): 100%
Color 1 (B.st. spores [1]; milk spiked at 50 ppb): 5
16 hr Result (B.st. spores [2]; milk spiked at 25 ppb): Pos
% Pos (16 hr Result) (B.st. spores [2]; milk spiked at 25 ppb): 100%
% Pos (Result) (B.st. spores [2]; milk spiked at 25 ppb): 100%
Result (B.st. spores [2]; milk spiked at 25 ppb): Pos
16 hr Result (B.st. spores [2]; milk spiked at 50 ppb): Pos
% Pos (16 hr Result) (B.st. spores [2]; milk spiked at 50 ppb): 100%
% Pos (Result) (B.st. spores [2]; milk spiked at 50 ppb): 100%
Result (B.st. spores [2]; milk spiked at 50 ppb): Pos

Cc1cc(C)nc(NS(=O)(=O)c2ccc(N)cc2)n1 [SMZ, sulfamethazine]
% Pos (Color 2) (B.st. spores [1]; milk spiked at 100 ppb): 100%
Color 2 (B.st. spores [1]; milk spiked at 100 ppb): 5
% Pos (Color 1) (B.st. spores [1]; milk spiked at 100 ppb): 100%
Color 1 (B.st. spores [1]; milk spiked at 100 ppb): 5
% Pos (Color 2) (B.st. spores [1]; milk spiked at 200 ppb): 100%
Color 2 (B.st. spores [1]; milk spiked at 200 ppb): 4
% Pos (Color 1) (B.st. spores [1]; milk spiked at 200 ppb): 100%
Color 1 (B.st. spores [1]; milk spiked at 200 ppb): 5
16 hr Result (B.st. spores [2]; milk spiked at 100 ppb): Pos
% Pos (16 hr Result) (B.st. spores [2]; milk spiked at 100 ppb): 100%
% Pos (Result) (B.st. spores [2]; milk spiked at 100 ppb): 100%
Result (B.st. spores [2]; milk spiked at 100 ppb): Pos
16 hr Result (B.st. spores [2]; milk spiked at 200 ppb): Pos
% Pos (16 hr Result) (B.st. spores [2]; milk spiked at 200 ppb): 100%
% Pos (Result) (B.st. spores [2]; milk spiked at 200 ppb): 100%
Result (B.st. spores [2]; milk spiked at 200 ppb): Pos

CC[C@H]1OC(=O)C[C@@H](O)[C@H](C)[C@@H](O[C@@H]2O[C@H](C)[C@@H](O[C@H]3C[C@@](C)(O)[C@@H](O)[C@H](C)O3)[C@H](N(C)C)[C@H]2O)[C@@H](CC=O)C[C@@H](C)C(=O)/C=C/C(C)=C/[C@@H]1CO[C@@H]1O[C@H](C)[C@@H](O)[C@@H](OC)[C@H]1OC [TY, tylosin]
% Pos (Color 2) (B.st. spores [1]; milk spiked at 40 ppb): 100%
Color 2 (B.st. spores [1]; milk spiked at 40 ppb): 4
% Pos (Color 1) (B.st. spores [1]; milk spiked at 40 ppb): 100%
Color 1 (B.st. spores [1]; milk spiked at 40 ppb): 5
% Pos (Color 2) (B.st. spores [1]; milk spiked at 50 ppb): 100%
Color 2 (B.st. spores [1]; milk spiked at 50 ppb): 5
% Pos (Color 1) (B.st. spores [1]; milk spiked at 50 ppb): 100%
Color 1 (B.st. spores [1]; milk spiked at 50 ppb): 5
16 hr Result (B.st. spores [2]; milk spiked at 40 ppb): Pos
% Pos (16 hr Result) (B.st. spores [2]; milk spiked at 40 ppb): 100%
% Pos (Result) (B.st. spores [2]; milk spiked at 40 ppb): 100%
Result (B.st. spores [2]; milk spiked at 40 ppb): Pos
16 hr Result (B.st. spores [2]; milk spiked at 50 ppb): Pos
% Pos (16 hr Result) (B.st. spores [2]; milk spiked at 50 ppb): 100%
% Pos (Result) (B.st. spores [2]; milk spiked at 50 ppb): 100%
Result (B.st. spores [2]; milk spiked at 50 ppb): Pos

gentamicin
% Pos (Color 2) (B.st. spores [1]; milk spiked at 300 ppb): 100%
Color 2 (B.st. spores [1]; milk spiked at 300 ppb): 4
% Pos (Color 1) (B.st. spores [1]; milk spiked at 300 ppb): 100%
Color 1 (B.st. spores [1]; milk spiked at 300 ppb): 4
% Pos (Color 2) (B.st. spores [1]; milk spiked at 400 ppb): 100%
Color 2 (B.st. spores [1]; milk spiked at 400 ppb): 5
% Pos (Color 1) (B.st. spores [1]; milk spiked at 400 ppb): 100%
Color 1 (B.st. spores [1]; milk spiked at 400 ppb): 5
16 hr Result (B.st. spores [2]; milk spiked at 300 ppb): Pos
% Pos (16 hr Result) (B.st. spores [2]; milk spiked at 300 ppb): 100%
% Pos (Result) (B.st. spores [2]; milk spiked at 300 ppb): 100%
Result (B.st. spores [2]; milk spiked at 300 ppb): Pos
16 hr Result (B.st. spores [2]; milk spiked at 400 ppb): Pos
% Pos (16 hr Result) (B.st. spores [2]; milk spiked at 400 ppb): 100%
% Pos (Result) (B.st. spores [2]; milk spiked at 400 ppb): 100%
Result (B.st. spores [2]; milk spiked at 400 ppb): Pos
